According to patent publication US20250161422A1, “ARGINASE 2 VACCINE” (IO Biotech ApS, priority 2022, published 2025):

Tests used:
[1] = system: PBMCs / peptide-specific T-cell cultures; assay: Intracellular cytokine staining for TNFα and IFNγ; assay type: cell-based, human; conditions: for T-cell subset that responds (ICS for TNFα and IFNγ): peptide-stimulated healthy donor PBMCs
Protocol: PBMCs were in vitro stimulated with peptide as described above. At 10-14 days post-simulation, the cells were used for intracellular cytokine staining. […] After a 4-hour incubation period, the cells were washed and stained for the extracellular markers CD3-APC/H7, CD4-FITC, and CD8-PerCP, and dead cells were stained with FVS-510. Next, the cells were permeabilized using Fixation/Permeabilization buffer (Invitrogen), followed by staining with IFNγ-APC and TNFα-BV421. Data were acquired using a BD Canto II flow cytometer and analyzed using FlowJo.
(§1) ARG2-specific T-cell cultures were obtained by stimulation of PBMCs with ARG2-S05 peptide, followed by low-dose IL-2 (120 U/mL) the next day. At 12 days after peptide stimulation, the cells were re-stimulated with peptide, and IFNγ-secreting cells were isolated using magnetic beads. Next, these cells were expanded using a rapid expansion protocol, including feeder cells, CD3 antibody, and high-dose IL-2 (3000-6000 U/mL). On day 16-17, culture specificity was determined by stimulation with ARG2-S05 peptide and determination of the cytokine release by ICS.
To further characterize the ARG2-specific CD8^+ T cells, A2S05-specific T-cell cultures from four donors were established. Briefly, donor PBMCs were stimulated with A2S05 in vitro. 12 days later, peptide-specific T cells were re-stimulated and isolated using an IFNγ capture kit. IFNγ-producing cells were expanded using a rapid expansion protocol and the specificity was examined at 16-17 days after expansion by ICS for IFNγ and TNF.

[2] = system: PBMCs from healthy donors or cancer patients; assay: In vitro peptide stimulation of PBMCs and IFNγ ELISPOT; assay type: cell-based, human; conditions: for IFNγ ELISPOT response, screening: PBMCs of five healthy HLA-A2+ donors, restimulated after 12-14 days; for IFNγ ELISPOT response, validation (repetition): healthy donors, repeat ELISPOT (FIG. 5); for IFNγ ELISPOT response in 17 HDs: 17 healthy donors of undetermined HLA-type
Protocol: PBMCs from healthy donors or cancer patients were subjected to in vitro stimulation with ARG2-derived peptides by plating the cells with 10 μM peptide. The following day, the cells received low-dose IL-2 (120 U/ml) treatment. At 10-14 days after peptide stimulation, the cells were used for IFNγ ELISPOT. ELISPOT plates were coated with […] IFNγ capture antibody (MabTech) overnight. The next day, the plates were washed and blocked in X-vivo media followed by the plating of 2.5-3.5×10^5 PBMCs per well for ELISPOT, with and without restimulation with 5 μM peptide. A minimum of triplicate wells were set up pr. condition. The cells were incubated 14-16 hours before they were washed and a biotin-conjugated secondary antibody (Mabtech) was added, followed by a 2-hour incubation. Next, the cells were washed again, followed by incubation with streptavidin-conjugated alkaline phosphatase (Mabtech) for 1 hour. Finally, spots were developed by addition of BCIP/NBT substrate (Mabtech). Tap water was used to stop the reaction. Spots corresponding to IFNγ secretion were quantified by visualization on a CTL ImmunoSpot S6 Ultimate-V analyzer with ImmunoSpot software version 5.1. Peptide-specific IFNγ secreting cells were calculated by subtracting the average spot count in control wells from the average spot count in peptide-stimulated wells. […] Peptide pulsing was performed by incubating the target cells with 20 μM peptide for 1 hour, followed by two washes to remove unbound peptide. Effector cells with added peptide served as the positive control and […] plated without […] as the negative control. In ELISPOTs assays with immune cells as target cells, wells containing only effector cells were also included as controls. The average spot count from replicate wells was subtracted from the spot count of effector cells plated with the respective target cells. These 15 peptides ([…] to […]) were screened in peripheral blood mononuclear cells (PBMCs) from five healthy donors (HD), who were confirmed to be HLA-A2 positive (HLA-A2^+). PBMCs were stimulated with each peptide in vitro and restimulated in IFNγ ELISPOT after 12-14 days of culture.

[3] = system: splenocytes of vaccinated mice; assay: Murine IFNγ ELISPOT on splenocytes; assay type: in vivo, C57BL/6 mice; conditions: splenocytes of ARG2-vaccinated Pan02 mice plated with ARG1 peptide
Protocol: The purity of all synthesized peptides was >90%.
Mice were sacrificed at endpoint for tumor studies and one week after the last vaccination for the remaining studies. Spleens were harvested, smashed through a 70 μm filter, and red blood cells were lysed with Red Blood Cell Lysis Solution (Qiagen). 8×10^5 splenocytes were plated per well in IFNγ ELISPOT plates. IFNγ ELISPOT was performed as previously described. Tumors were harvested, cut into smaller pieces and enzymatically digested in RPMI medium containing 2.1 mg/ml collagenase type 1 (Worthington), 75 μg/ml DNase I (Worthington), 5 mM CaCl2, and 1% P/S. Cells were filtered through a 70 μm cell strainer and red blood cells were lysed as described above. CD45+tumor infiltrating lymphocytes (TILs) were isolated from tumor single-cell suspensions with CD45 microbeads (for MC38 and LL2 tumors) (Miltenyi Biotec) or with CD45 (TIL) microbeads (for B16-F10 tumors) (Miltenyi Biotec). The isolated CD45+ cells were rested overnight. 5×10^5 CD45+ cells were plated per well in IFNγ ELISPOT plates. For phenotyping ARG2 responses, CD8+ and CD4^+ T cells were isolated from the spleen of vaccinated mice with CD8a (Ly-2) and CD4 (L3T4) microbeads (Miltenyi Biotec), respectively, following manufacturer's instruction. Isolated T cells were rested overnight. […]

[4] = system: murine model of lung cancer; conditions: previously shown by the inventors; cited from earlier work
[5] = system: splenocytes of vaccinated mice; conditions: previously identified by the inventors; cited from earlier work
[6] = system: HLA-A1+, HLA-C7+ or HLA-B8+ cancer cell lines (FM6, FM28, FM82, OCI-M2); assay: IFNγ ELISPOT of A2S05-specific T cells with peptide-pulsed cancer cell lines; assay type: cell-based, human; conditions: for IFNγ ELISPOT reactivity of A2S05-specific T cells to peptide-pulsed HLA-B8+ FM6: metastatic malignant melanoma cell line FM6
Protocol: Peptide-specific IFNγ secreting cells were calculated by subtracting the average spot count in control wells from the average spot count in peptide-stimulated wells. ELISPOT assays with ARG2-specific T cells (effector cells) and various immune cells or cancer cells as target cells were set up by adding 3×10^4-5×10^4 effector cells to ELISPOT wells followed by 5×10^3-10^4 target cells. Peptide pulsing was performed by incubating the target cells with 20 μM peptide for 1 hour, followed by two washes to remove unbound peptide. Effector cells with added peptide served as the positive control and target cells plated without […] as the negative control. In ELISPOTs assays with immune cells as target cells, wells containing only effector cells were also included as controls. The average spot count from replicate wells was subtracted from the spot count of effector cells plated with the respective target cells.
as §1
FM6 was confirmed to be HLA-B8^+ by flow cytometry and confirmed to express ARG2 by RT-qPCR (FIG. 6).

PBMCs = assay: Ex vivo IFNγ ELISPOT; assay type: cell-based, human; conditions: donors with strong in vitro responses
Protocol: PBMCs were thawed and rested overnight. The next day, 9×10^5 cells were plated pr. well. Control and peptide stimulations were performed in at least triplicate. The rest of the protocol was performed as described above.

GLLSALDLV (listed as Homo sapiens) [A2S14, human ARG2 positions 287-295]
T-cell subset that responds (ICS for TNFα and IFNγ) [1]: reaction was from CD4^+ T cells
IFNγ ELISPOT response, screening [2]: significant responses in PBMCs from three or more donors
IFNγ ELISPOT response, validation (repetition) [2]: strong IFNγ ELISPOT responses

ISAKDIVYI (listed as Mus musculus) [mARG1_169-177, murine ARG1 peptide from the corresponding region, control for specific recognition]
cross-reactivity of vaccine-induced responses to ARG1 peptide [3]: no cross-reactivity

LLSALDLVEV (listed as Homo sapiens) [A2S15, human ARG2 positions 288-297]
IFNγ ELISPOT response, screening [2]: significant responses in PBMCs from three or more donors
IFNγ ELISPOT response, validation (repetition) [2]: did not show significant responses

LSPPNIVYI (listed as Mus musculus) [mARG2_188-196]
tumor growth in murine model of lung cancer [4]: induced tumor growth delay
T-cell responses upon a single vaccination [5]: strong and frequent T-cell responses

NLIVNPRSV (listed as Homo sapiens) [A2S05, human ARG2 positions 84-92]
IFNγ ELISPOT reactivity of A2S05-specific T cells to peptide-pulsed HLA-A1+ and HLA-C7+ cell lines ([6]; T cells from HD78 and HD93): no reactivity
IFNγ ELISPOT reactivity of A2S05-specific T cells to additional HLA-B8+ cell lines ([6]; all four T-cell cultures, FM28, FM82, OCI-M2): reactivity against three additional HLA-B8^+ cell lines
IFNγ ELISPOT reactivity of A2S05-specific T cells to peptide-pulsed HLA-B8+ FM6 [6]: recognition and reactivity activity
HLA restriction of the peptide ([6]; recognition and cytolytic activity against HLA-B8+ lines): HLA-B8 restriction
specificity of expanded peptide-specific T-cell cultures (ICS for IFNγ and TNF) ([1]; four donors, 16-17 days after expansion): Highly specific CD8+cultures from all four donors
T-cell subset that responds (ICS for TNFα and IFNγ) [1]: responses were from CD8^+ T-cells
ex vivo IFNγ ELISPOT response (PBMCs): strong and significant responses in PBMCs ex vivo
IFNγ ELISPOT response in 17 HDs [2]: only few responses
donors with statistically significant IFNγ ELISPOT responses ([2]; 38 donors with known HLA-A2 status (13 cancer patients, 25 healthy donors)): 10 out of the 38
IFNγ ELISPOT response, screening [2]: significant responses in PBMCs from three or more donors
IFNγ ELISPOT response, validation (repetition) [2]: strong IFNγ ELISPOT responses
HLA-A2 restriction from donor responses ([2]; responses in both HLA-A2+ and HLA-A2- donors): not HLA-A2 restricted

QIVKNPRSV (listed as Homo sapiens) [ARG1_65-73, reference compound]
IFNγ ELISPOT reactivity of A2S05-specific T cells to peptide-pulsed HLA-B8+ FM6 [6]: lack of reactivity

SLRGSLSRLLQTRVHSILKKSVHSVAVIGAPFS (listed as Homo sapiens) [A2L2, reference compound]
IFNγ ELISPOT response in 17 HDs [2]: Strong and frequent responses
